We go through one substance from patent US10794932B2, “Biosensor for the detection of a biological target, and method for manufacturing the same” (The Governing Council of The University of Toronto, priority 2016, dated 2020).

Common to all, as to type: binding
What all share (settings): exposure 20 minutes

Test [1] deals with T1, TLR2 (Mus musculus, UniProt Q9QUN7).
T1 sequence (Q9QUN7 25-587): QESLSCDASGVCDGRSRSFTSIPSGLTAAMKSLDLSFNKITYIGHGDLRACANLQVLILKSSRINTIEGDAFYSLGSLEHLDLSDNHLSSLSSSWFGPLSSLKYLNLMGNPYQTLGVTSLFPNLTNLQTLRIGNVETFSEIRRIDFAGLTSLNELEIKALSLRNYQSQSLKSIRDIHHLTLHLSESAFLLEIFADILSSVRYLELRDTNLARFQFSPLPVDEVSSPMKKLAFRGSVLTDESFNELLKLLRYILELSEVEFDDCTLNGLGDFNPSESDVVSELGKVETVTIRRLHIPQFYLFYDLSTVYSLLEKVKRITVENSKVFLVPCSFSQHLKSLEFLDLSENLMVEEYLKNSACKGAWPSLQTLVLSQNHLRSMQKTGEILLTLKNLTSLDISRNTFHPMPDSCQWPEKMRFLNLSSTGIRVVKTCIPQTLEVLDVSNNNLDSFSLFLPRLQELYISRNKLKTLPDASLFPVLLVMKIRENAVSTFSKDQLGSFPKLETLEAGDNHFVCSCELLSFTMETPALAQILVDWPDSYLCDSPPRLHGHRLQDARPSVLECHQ
As to the kind of experiment: TLR multiplex sensor, EIS film resistance before/after exposure (Example 5), TLR2 sensor. How it is done:
(§1) For each multiplex TLR sensor, 5 separate gold electrodes were used for binding TLR 1 to 5. The 5 modified electrodes/sensors were exposed to the analyte solution and evaluated one by one using potentiostats and electrochemical cells.
(§2) The preparation of each TLR biosensor was evaluated using EIS. It is understood that cyclic voltammetry as well as electrochemical impedance microscopy can also be used for monitoring the modification. […] Ethanolamine was then applied to deactivate unreacted LPA. Due to dissociation of unspecific absorbed TLR, the Rct dropped slightly. Experimental curves were evaluated using a model to obtain the Rct values, which can be seen at FIG. 9. Measurements from at least triplicated samples prepared were used to obtain statistic information.
(§3) The TLR1 sensor was exposed to an E. coli K12 whole-cell buffer solution for 20 minutes. The sensor was then removed, washed thoroughly and characterized in the electrochemical cell measuring the Rct again. The difference in Rct before and after exposure is the response triggered by the target. The same protocol was carried out for all remaining TLRs (TLRs 2-5) to obtain one set of pattern for E. coli K12 (FIGS. 10b to 10e). Multiple sets were investigated for statistical relevance. […]

Test [2] deals with T2, TLR3 (Mus musculus, UniProt Q99MB1).
T2 sequence (Q99MB1 26-905): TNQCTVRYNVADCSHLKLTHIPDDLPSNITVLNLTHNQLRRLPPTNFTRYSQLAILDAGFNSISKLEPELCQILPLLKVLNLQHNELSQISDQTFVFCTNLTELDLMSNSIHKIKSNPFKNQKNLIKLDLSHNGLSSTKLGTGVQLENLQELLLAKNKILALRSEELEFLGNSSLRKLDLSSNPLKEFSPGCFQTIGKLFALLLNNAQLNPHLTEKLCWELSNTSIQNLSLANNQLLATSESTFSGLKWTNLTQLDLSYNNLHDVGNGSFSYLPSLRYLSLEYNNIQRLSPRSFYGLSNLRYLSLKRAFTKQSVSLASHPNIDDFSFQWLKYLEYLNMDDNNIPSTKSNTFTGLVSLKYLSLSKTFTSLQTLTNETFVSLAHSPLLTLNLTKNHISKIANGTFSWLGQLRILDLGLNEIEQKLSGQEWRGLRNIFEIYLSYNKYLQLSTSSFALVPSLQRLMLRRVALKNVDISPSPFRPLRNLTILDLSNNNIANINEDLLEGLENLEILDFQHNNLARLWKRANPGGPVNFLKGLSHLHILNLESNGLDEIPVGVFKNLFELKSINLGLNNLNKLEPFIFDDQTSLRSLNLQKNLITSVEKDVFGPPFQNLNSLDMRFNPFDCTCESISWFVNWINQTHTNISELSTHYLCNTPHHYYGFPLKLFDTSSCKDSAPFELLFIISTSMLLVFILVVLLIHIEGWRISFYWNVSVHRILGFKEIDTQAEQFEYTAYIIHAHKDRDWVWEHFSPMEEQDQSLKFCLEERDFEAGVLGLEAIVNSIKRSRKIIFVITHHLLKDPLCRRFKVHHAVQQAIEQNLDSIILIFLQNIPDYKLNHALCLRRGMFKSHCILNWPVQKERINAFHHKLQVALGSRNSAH
As to the kind of experiment: TLR multiplex sensor, EIS film resistance before/after exposure (Example 5), TLR3 sensor. The method, then: as §1, §2, §3

The target of test [3] is TLR5 (Mus musculus, UniProt Q9JLF7). As to the kind of experiment: TLR multiplex sensor, EIS film resistance before/after exposure (Example 5), TLR5 sensor. How it is done:
as §1, §2, §3

Chain of TLR5 (Q9JLF7 27-859): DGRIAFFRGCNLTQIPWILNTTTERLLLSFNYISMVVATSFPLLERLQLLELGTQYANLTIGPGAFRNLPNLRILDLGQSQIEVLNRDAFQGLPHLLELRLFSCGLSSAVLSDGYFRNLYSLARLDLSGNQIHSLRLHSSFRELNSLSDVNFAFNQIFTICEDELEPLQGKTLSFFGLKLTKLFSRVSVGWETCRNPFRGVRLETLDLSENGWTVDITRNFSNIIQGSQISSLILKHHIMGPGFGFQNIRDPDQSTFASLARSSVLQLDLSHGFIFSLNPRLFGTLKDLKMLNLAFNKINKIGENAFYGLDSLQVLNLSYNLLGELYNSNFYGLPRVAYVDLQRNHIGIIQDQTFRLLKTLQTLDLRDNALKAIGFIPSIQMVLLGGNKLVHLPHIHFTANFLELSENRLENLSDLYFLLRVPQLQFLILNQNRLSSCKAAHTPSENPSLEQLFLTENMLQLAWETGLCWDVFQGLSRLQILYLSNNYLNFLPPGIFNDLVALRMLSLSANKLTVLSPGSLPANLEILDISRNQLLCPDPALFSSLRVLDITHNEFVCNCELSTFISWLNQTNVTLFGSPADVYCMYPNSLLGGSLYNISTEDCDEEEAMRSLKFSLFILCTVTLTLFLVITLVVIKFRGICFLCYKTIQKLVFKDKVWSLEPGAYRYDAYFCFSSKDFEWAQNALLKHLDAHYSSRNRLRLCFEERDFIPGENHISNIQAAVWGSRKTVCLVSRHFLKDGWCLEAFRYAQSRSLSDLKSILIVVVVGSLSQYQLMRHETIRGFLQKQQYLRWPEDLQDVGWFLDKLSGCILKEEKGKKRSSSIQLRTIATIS

With Pam3CSK4, the “delta Rct %” value in test [1] is on record as 35%; in test [2] it was “limited responses”; in test [3], “limited responses”.
